Reference: patent publication US20230233482A1, “COMPOSITIONS COMPRISING THYMOL FOR USE IN THE TREATMENT OF INFLAMMATORY OR FUNCTIONAL BOWEL DISORDERS BY MODULATING THE ENDOCANNABINOID SYSTEM” (priority 2020, published 2023)

Key:
[1] = weaned piglets, 25.5-510 mg thymol/kg feed
Protocol: […] piglets (Duroc—Large White) weaned at 28 days of age and with a body weight (BW) of 7.71±1.00 kg were divided into 40 pens (4 piglets per pen, castrated males and females were placed in separate pens) and randomly assigned to one of the following experimental groups (n=32): control group fed with the basal diet (T1), a group fed with the basal diet supplemented with 25.5 mg of thymol/kg feed (T2), a group fed with the basal diet supplemented with 51 mg of thymol/kg feed (T3), a group fed with the basal diet supplemented with 153 mg of thymol/kg feed (T4) and a group fed with the basal diet supplemented with 510 mg of thymol/kg feed (T5). Thymol was provided in a form embedded (microencapsulated) in a lipid matrix (Vetagro SpA, Reggio Emilia, Italy). Concentrations of thymol were selected to meet or exceed the upper limit of inclusion in food and feed established by the European Agency for the Evaluation of Medicinal Products and for the feed. The basal feed was formulated to meet or exceed the nutritional requirements of pigs according to the National Research Council, and feed and water were provided ad libitum (the composition of the basal diet is reported in Table 1). The health condition of the animals was monitored during the study. The piglets were individually weighed at the beginning (day 0) and end (day 14) of the study. Growth parameters, such as FI, ADFI, ADG and F:G (FI—feed intake; ADFI—Average daily feed intake; ADG—Average daily gain; F:G—Feed to gain ratio), were measured in the animals housed in each pen on day 14 (d14) of the experiment.
Animals were blocked in a completely randomised design and data were analysed using GraphPad Prism® software (GraphPad Software, Inc., La Jolla, Calif., USA). Data were analysed using one-way ANOVA followed by Tukey's post hoc test to detect differences among treatments. The pen was the experimental unit for growth performance, whereas the pig was the experimental unit for gene expression. Differences were considered significant at P<0.05, and trends were defined at 0.05≤P<0.1.

CB1 mRNA = experiment: Gene expression (real-time PCR) of cannabinoid receptor 1 in duodenal and ileal mucosa at d14; type: in vivo, pigs
Protocol: (§1) At the end of the study, 8 animals from each treatment group were sacrificed, samples were collected, and analysed. Duodenal and ileal mucosal scrapings were collected. The duodenum and ileum were longitudinally cut to expose the mucosa, washed with a phosphate-buffered saline solution to remove mucus and digesta, then scraped gently, packed, immediately frozen in liquid nitrogen and stored at -80° C. until the analyses of gene and protein expression. Gene expression was analysed using the method reported by […] et al. [The Journal of Nutrition. 2011; 141:2139-45]. Duodenal and ileal scraping samples obtained on d14 of the study were disrupted by grinding them in liquid nitrogen with mortar and pestle, and then homogenised using a TissueLyser (Qiagen, Hilden, Germany). Total RNA was isolated using a NucleoSpin® RNA Kit (Macherey-Nagel, Düren, Germany) according to the manufacturer's instructions. Genomic DNA contamination was removed by treating the samples with the deoxyribonuclease supplied in the extraction kit ([…], RNase-free; Macherey-Nagel). The RNA yield and quality were determined spectrophotometrically by measuring the absorbance at 260 and 280 nm (A260 and A280 nm, respectively) (Microvolume Mode with SmartPath® Technology, Denovix). One microgram of RNA was reverse transcribed using the iScript cDNA Synthesis Kit (Bio-Rad Laboratories Inc., Hercules, Calif., USA) according to the manufacturer's instructions. Real-time PCR was performed using an iCycler Thermal Cycler system and SybrGreen Supermix (Bio-Rad Laboratories Inc.). […] The average threshold cycle (CT) was determined for each gene of interest, and the geometric average was calculated for HK by assuming that CT is the number of cycles required to reach a fixed arbitrary threshold. Delta CT was calculated, then a modification of the 2^-ΔΔCT method [Livak K J, et al., Methods 2001; 25:402-8] was used to analyse the relative expression (fold changes), which was calculated relative to the control group. […]

CB2 mRNA = experiment: Gene expression (real-time PCR) of cannabinoid receptor 2 in duodenal and ileal mucosa at d14; type: in vivo, pigs
Protocol: At the end of the study, 8 animals from each treatment group were sacrificed, samples were collected, and analysed. Duodenal and ileal mucosal scrapings were collected. The duodenum and ileum were longitudinally cut to expose the mucosa, washed with a phosphate-buffered saline solution to remove mucus and digesta, then scraped gently, packed, immediately frozen in liquid nitrogen and stored at -80° C. until the analyses of gene and protein expression. Gene expression was analysed using the method reported by […] et al. [The Journal of Nutrition. 2011; 141:2139-45]. Duodenal and ileal scraping samples obtained on d14 of the study were disrupted by grinding them in liquid nitrogen with mortar and pestle, and then homogenised using a TissueLyser (Qiagen, Hilden, Germany). Total RNA was isolated using a NucleoSpin® RNA Kit (Macherey-Nagel, Düren, Germany) according to the manufacturer's instructions. Genomic DNA contamination was removed by treating the samples with the deoxyribonuclease supplied in the extraction kit ([…], RNase-free; Macherey-Nagel). The RNA yield and quality were determined spectrophotometrically by measuring the absorbance at 260 and 280 nm (A260 and A280 nm, respectively) (Microvolume Mode with SmartPath® Technology, Denovix). One microgram of RNA was reverse transcribed using the iScript cDNA Synthesis Kit (Bio-Rad Laboratories Inc., Hercules, Calif., USA) according to the manufacturer's instructions. Real-time PCR was performed using an iCycler Thermal Cycler system and SybrGreen Supermix (Bio-Rad Laboratories Inc.). The thermocycling protocol provided for an initial denaturation step for 1 min and 30 seconds at 95° C., followed by 40 cycles of denaturation at 95° C. for 15 seconds and 30 seconds of annealing and extension at 60° C. After amplification, a melting curve analysis was performed for all the samples, with slow heating from 55° C. to 95° C. at a rate of 0.5° C./s to validate the absence of non-specific products. Gene expression was normalised to a housekeeping gene (HK) encoding portions of porcine ribosomal subunit 60 S, in particular ribosomal protein […] (RPL35). The average threshold cycle (CT) was determined for each gene of interest, and the geometric average was calculated for HK by assuming that CT is the number of cycles required to reach a fixed arbitrary threshold. Delta CT was calculated, then a modification of the 2^-ΔΔCT method [Livak K J, et al., Methods 2001; 25:402-8] was used to analyse the relative expression (fold changes), which was calculated relative to the control group. The sequences, accession numbers in the EMBL database/GenBank, expected product lengths and references for porcine primers are reported in Table 2. […]

FAAH mRNA = experiment: Gene expression (real-time PCR) of ECS enzyme FAAH in duodenal and ileal mucosa at d14; type: in vivo, pigs
Protocol: (§2) At the end of the study, 8 animals from each treatment group were sacrificed, samples were collected, and analysed. Duodenal and ileal mucosal scrapings were collected. The duodenum and ileum were longitudinally cut to expose the mucosa, washed with a phosphate-buffered saline solution to remove mucus and digesta, then scraped gently, packed, immediately frozen in liquid nitrogen and stored at -80° C. until the analyses of gene and protein expression. Gene expression was analysed using the method reported by […] et al. [The Journal of Nutrition. 2011; 141:2139-45]. […] The RNA yield and quality were determined spectrophotometrically by measuring the absorbance at 260 and 280 nm (A260 and A280 nm, respectively) (Microvolume Mode with SmartPath® Technology, Denovix). […] The average threshold cycle (CT) was determined for each gene of interest, and the geometric average was calculated for HK by assuming that CT is the number of cycles required to reach a fixed arbitrary threshold. Delta CT was calculated, then a modification of the 2^-ΔΔCT method [Livak K J, et al., Methods 2001; 25:402-8] was used to analyse the relative expression (fold changes), which was calculated relative to the control group. […]

TRPV1 mRNA = experiment: Gene expression (real-time PCR) of gut chemosensing marker TRPV1 in duodenal and ileal mucosa at d14; type: in vivo, pigs; conditions: for TRPV1 mRNA levels compared to the control group: ileum, d14, P=0.0183
Protocol: as §1

OR1G1 mRNA = experiment: Gene expression (real-time PCR) of gut chemosensing marker OR1G1 in duodenal and ileal mucosa at d14; type: in vivo, pigs
Protocol: as §2

Cc1ccc(C(C)C)c(O)c1 [thymol]
health conditions ([1]; 14 days): good health conditions | mortality ([1]; 14 days): no mortality | differences in average daily feed intake (ADFI) among the treatment groups ([1]; day 14, data not shown): not observed | differences in average daily gain (ADG) among the treatment groups ([1]; day 14, data not shown): not observed | differences in body weight (BW) among the treatment groups ([1]; day 14, data not shown): not observed | differences in feed intake (FI) among the treatment groups ([1]; day 14, data not shown): not observed | differences in feed to gain ratio (F:G) among the treatment groups ([1]; day 14, data not shown): not observed | level of the CB1 mRNA compared to the control group (CB1 mRNA; duodenum, group T5 (510 mg thymol/kg feed), d14, P=0.0209): significantly increased | level of the CB1 mRNA compared to the control group (CB1 mRNA; ileum, group T4 (153 mg thymol/kg feed), d14, P=0.0054): significantly increased | level of the CB1 mRNA compared to the control group (CB1 mRNA; ileum, group T5 (510 mg thymol/kg feed), d14, P=0.0054): significantly increased | levels of the CB2 mRNA compared to the control group (CB2 mRNA; duodenum, group T4 (153 mg thymol/kg feed), d14, P=0.004): Significantly increased | levels of the CB2 mRNA compared to the control group (CB2 mRNA; duodenum, group T5 (510 mg thymol/kg feed), d14, P=0.004): Significantly increased | levels of the CB2 mRNA compared to the control group (CB2 mRNA; ileum, group T4 (153 mg thymol/kg feed), d14, P=0.0162): Significantly increased | levels of the CB2 mRNA compared to the control group (CB2 mRNA; ileum, group T5 (510 mg thymol/kg feed), d14, P=0.0162): Significantly increased | differences in FAAH mRNA levels (FAAH mRNA; duodenum, all thymol groups (25.5-510 mg/kg feed), d14): not observed | FAAH mRNA levels compared to the control group (FAAH mRNA; ileum, group T4 (153 mg thymol/kg feed), d14, P=0.0028): significantly increased | TRPV1 mRNA level (TRPV1 mRNA; duodenum, 510 mg thymol/kg of feed, d14, P=0.0382): increased | TRPV1 mRNA levels compared to the control group (TRPV1 mRNA; group T4 (153 mg thymol/kg feed)): increased | TRPV1 mRNA levels compared to the control group (TRPV1 mRNA; group T5 (510 mg thymol/kg feed)): increased | OR1G1 mRNA expression compared to the control group (OR1G1 mRNA; duodenum, 510 mg thymol/kg feed (T5), d14, P=0.0210): higher levels | OR1G1 mRNA expression compared to the control group (OR1G1 mRNA; ileum, 153 mg thymol/kg feed (T4), d14, P=0.0235): higher levels
